Measurements as given in patent US20210007350A1, “USE OF A FUNGICIDAL COMPOSITION AS TREATMENT FOR POWDERY MILDEW” (DESARROLLO AGRICOLA Y MINERO, S.A., priority 2017, published 2021).

System: powdery mildew (Sphaerotheca macularis)
Test: Control of powdery mildew in greenhouse strawberry cultivation (field efficacy trial)
Format: in vivo
Settings: Myclobutanil 20 g/l, dose 30 ml/hl
Method: To reflect the efficacy of the invention presented in this description, comparative studies were performed in commercial conditions. Thus, commercial application of the present fungicidal composition is carried out by ground spraying with manual sprayers, motor pumps, or other similar means. The invention is further characterised by a specific use with a product application dose of between 0.05 l/hl and 0.5 l/hl, and preferably between 0.2 l/hl and 0.3 l/hl of the composition described herein.
The conditions of the application solution will be those normally used for the crops described. The following examples show the spraying case.
Example 1: Application of the Fungicidal Composition for the Control of Powdery Mildew (Sphaerotheca macularis) in Strawberries
The aim of the protocol was to evaluate the effect of the fungicidal composition applied in different doses for the control of powdery mildew (Sphaerotheca macularis) in greenhouse strawberry cultivation and compare its efficacy against that of a standard chemical phytosanitary product such as myclobutanil. Location: Almeria (Spain). Variety: Benicia.
Untreated control specimen
Myclobutanil 20 g/l, dose 30 ml/hl
Fungicidal composition, dose 0.2l/hl
Fungicidal composition, dose 0.3l/hl
Number of applications: 4
Use of solution: 1000 l/ha.
Parameters evaluated: Efficacy.
Efficacy data were taken at the following times.
T0: 0, before first application.
T1: 10 days after the first application and just before the second application.
T2: 9 days after the second application and just before the third application.
T3: 9 days after the third application and just before the fourth application
T4: 7 days after the fourth application.

CCCCC(C#N)(Cn1cncn1)c1ccc(Cl)cc1 (centres unmarked) [Myclobutanil, myclobutanil]
efficacy % (T0) (T0: before first application, strawberry var. Benicia, greenhouse): 0%
efficacy % (T1) (T1: 10 days after the first application): 92.4%
efficacy % (T2) (T2: 9 days after the second application): 97.0%
efficacy % (T3) (T3: 9 days after the third application): 95.8%
efficacy % (T4) (T4: 7 days after the fourth application): 98.3%
